Values of other authors as cited in US20070099846A1, “Composition containing dipeptide of histidine and alanine for reducing uric acid and method for reducing uric acid using the dipeptide” (LYTONE ENTERPRISE, INC., priority 2003, published 2007).

Test system: peptidase and proteases excreted from pancreas or other digestive organs

Resistance against digestion by peptidase and proteases: resist against digestion
Structure (SMILES): NCCC(=O)N[C@@H](Cc1cnc[nH]1)C(=O)O [carnosine, β-alanyl-L-histidine]
